Values quoted from earlier work, collected in patent US11529374B2, “Extract and formulation including extract” (NIPPON ZOKI PHARMACEUTICAL CO., LTD., priority 2012, dated 2022).

Settings: particularly an effect for non-inflammatory pain diseases such as neuropathic pain disease; Japanese Patent No. 4005115, CN 101600438B

CC(=O)N[C@H]1[C@H]([C@H](O)[C@H](O)CO)OC(O)(C(=O)O)C[C@@H]1O (stereo partly shown) [N-acetylneuraminic acid]
Analgesic action: has an analgesic action
